# How the values were obtained:
# VX2 = experiment: Caspase-3 activity, VX2; assay type: cell-based, rabbit; settings: 1 mM for 3 hour
# Procedure: (§1) Caspase-3 activity and reduced cell viability was also measured in cell lines (HepG2, THLE-2, and VX2 cell lines) following 3-bromopyruvate treatment (1 mM for 3 hour) (FIG. 6A). Caspase-3 activity increased in each cell line following treatment and cell viability decreased following treatment. An increase in caspase-3 activity indicated the mechanism of cell death is apoptotic. FIGS. 6 B and C show cell viability is reduced in each cell line with increasing 3-bromopyruvate concentration after 1 and 3 hours of treatment.
# rat mammary tumor (RMT) = experiment: FDG uptake after IP injection in tumor bearing rats; assay type: in vivo
# Text: (§2) After having established the anti-glycolytic effect of 3-bromopyruvate in vitro, we designed a series of experiments to confirm this property in vivo. For this purpose, two different animal models, the Lewis rat mammary tumor model and the orthotopic VX2 rabbit liver cancer model were used. Since glucose uptake can be monitored using fluorine-labeled deoxyglucose (FDG), potential sites of decreased FDG uptake as a result of 3-bromopyruvate activity could be identified. The effects of intraperitonealy (IP) injected 3-bromopyruvate in non-tumor bearing rats were compared to those in tumor bearing rats. The tumors were derived from the rat mammary tumor (RMT) cell line and transplanted into the back adipose tissue of the rat and allowed to grow for 10 days. After having determined the maximum tolerated dose, all animals received two bolus doses (one hour apart) of 3-bromopyruvate injected IP. The FDG was injected 30 minutes after the first injection of 3-bromopyruvate and all animals were sacrificed 60 minutes after the FDG was injected. The tumors and all major organs were removed, weighed and analyzed in a gamma counter. […]
# HepG2 = experiment: Cell viability, HepG2; assay type: cell-based, human; settings: 1 mM for 3 hour
# Procedure: as §1
# VX2 tumor = experiment: PET/CT imaging and histopathology after 1-hour intraarterial infusion; assay type: in vivo, rabbit
# Procedure: To further confirm the tumor destruction using 3-bromopyruvate, Positron Emission Tomography (PET)/CT imaging was conducted in rabbits before and after a single 1-hour intraarterial (infusion) therapy with 3-bromopyruvate. […] Since 3-bromopyruvate acts extremely quickly, PET/CT images were obtained within 2 hours of therapy to examine the process of making a decision regarding immediate re-treatment. After the PET/CT images were obtained, the 2 rabbits were sacrificed, their liver explanted and submitted for histopathologic analysis. Various staining methods that the tumor was completely (100%) dead and that the mechanism of cell death was apoptotic, thus confirming the use of PET imaging in assessing tumor response.
# [1] = system: back adipose tissue (BAT); experiment: FDG uptake after IP injection in non-tumor bearing rats; assay type: in vivo, rat
# Text: as §2
# [2] = system: liver implanted VX2 tumors; experiment: Systemic delivery via marginal ear vein, animals with liver implanted VX2 tumors; assay type: in vivo, rabbit; settings: 25 ml, 0.5 mM via marginal ear vein
# Text: Finally, it was important to examine the effect of 3-BrPA when delivered systemically (i.e., via the general circulation) on both animal toxicity and its capacity to damage liver implanted tumors.
# Type II hexokinase = target: T1, Type II hexokinase (Homo sapiens, UniProt P52789); experiment: Binding of 14C-labeled 3-bromopyruvate in Hep G2 cells (western blot / autoradiograph); settings: 1 hour in HBSS
# T1 construct: The cells were harvested, total protein extracted, purified and used to run a western blot; endogenous in cells; host or cells: Hep G2
# T1 sequence (P52789 1-917): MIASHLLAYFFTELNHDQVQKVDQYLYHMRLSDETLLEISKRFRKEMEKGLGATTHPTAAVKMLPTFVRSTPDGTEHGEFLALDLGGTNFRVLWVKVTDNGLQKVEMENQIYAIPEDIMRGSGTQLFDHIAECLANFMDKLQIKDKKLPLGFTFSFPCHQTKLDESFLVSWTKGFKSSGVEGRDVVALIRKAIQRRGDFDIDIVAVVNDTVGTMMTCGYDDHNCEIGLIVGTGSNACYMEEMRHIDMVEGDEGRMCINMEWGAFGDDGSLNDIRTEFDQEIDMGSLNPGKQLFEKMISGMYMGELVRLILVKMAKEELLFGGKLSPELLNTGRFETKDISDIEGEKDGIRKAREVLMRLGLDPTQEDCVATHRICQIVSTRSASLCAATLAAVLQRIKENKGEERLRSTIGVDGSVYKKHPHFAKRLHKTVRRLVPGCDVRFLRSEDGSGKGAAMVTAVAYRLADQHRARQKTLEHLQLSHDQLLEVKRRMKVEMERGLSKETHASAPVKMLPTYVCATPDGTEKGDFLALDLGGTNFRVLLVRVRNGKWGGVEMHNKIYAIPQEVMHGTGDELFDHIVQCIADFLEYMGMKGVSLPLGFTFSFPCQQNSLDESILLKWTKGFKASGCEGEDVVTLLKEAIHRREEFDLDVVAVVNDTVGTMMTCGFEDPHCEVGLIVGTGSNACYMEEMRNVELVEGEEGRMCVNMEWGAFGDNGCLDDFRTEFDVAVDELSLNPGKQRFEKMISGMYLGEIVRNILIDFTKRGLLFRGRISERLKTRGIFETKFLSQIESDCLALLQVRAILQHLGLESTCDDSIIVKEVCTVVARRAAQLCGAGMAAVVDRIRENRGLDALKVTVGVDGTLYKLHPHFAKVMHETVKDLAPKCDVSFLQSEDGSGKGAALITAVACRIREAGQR
# Procedure: In a further study, the human hepatocellular carcinoma cell line (HCC), Hep G2, was treated with ^14C-labeled 3-bromopyruvate for a period of 1 hour in HBSS. The cells were harvested, total protein extracted, purified and used to run a western blot. They were then transferred onto a membrane, probed with a Type II hexokinase specific antibody and the antibody binding signal was captured on film through Chemiluminescent detection system (western blotting). The corresponding gel was also separately exposed to an autoradiograph.
# [3] = two IP bolus doses one hour apart
smiles,measurement,setting,value
O=C(O)C(=O)CBr [3-bromopyruvate],Caspase-3 activity,VX2,increased
same,FDG uptake in all other organs,rat mammary tumor (RMT); two IP bolus doses,unaffected
same,decrease in FDG uptake in the tumor,rat mammary tumor (RMT); [3],50%
same,cell viability,HepG2,decreased
same,tumor activity on post-treatment PET/CT scans,VX2 tumor; 2 hours after single 1-hour intraarterial infusion,complete disappearance of tumor activity
same,tumor death by histopathology,VX2 tumor; after single 1-hour intraarterial infusion,100%
same,mechanism of cell death,VX2 tumor; histopathologic staining,apoptotic
same,FDG uptake in other organs,[1]; two IP bolus doses,affected no other organs
same,decrease in FDG uptake (percentage of injected dose per gram of tissue) in back adipose tissue,[1]; [3],10 fold
same,animal behavior,[2],normal behavior
same,effect on liver implanted VX2 tumors,[2],no killing effect
same,histological examination of 9 major tissues,[2]; 4 days,no obvious damage
same,binding to Type II hexokinase,Type II hexokinase,directly binds
